The CheMixHub viscosity set
Where “and” joins values, the source holds several entries; their conditions need not be identical. Identical values can stand only once.

Tests used:
[1] = xn = mol fraction of the nth substance listed

CC(=O)N(C)C
Settings | viscosity
293.15 K, 101.33 kPa | 1.02 mPa·s
298 K, 101.33 kPa | 0.906 mPa·s
298.15 K, 101.3 kPa | 0.917 mPa·s
298.15 K, 101.33 kPa | 0.92 mPa·s
298.16 K, 101 kPa | 0.927 mPa·s
303.15 K, 101.3 kPa | 0.8769 mPa·s
308.15 K, 101.33 kPa | 0.823 mPa·s
313.15 K, 100 kPa | 0.765 mPa·s
323.15 K, 101 kPa | 0.673 mPa·s and 0.69 mPa·s
323.15 K, 101.33 kPa | 0.72 mPa·s

CCCCCCCC[P+](CC)(CC)CC.O=[N+]([O-])c1cn[n-]c1
100 kPa
Settings | viscosity [mPa·s]
293.15 K | 398
298.15 K | 282
303.15 K | 207
308.15 K | 155
313.15 K | 119
318.15 K | 94
323.15 K | 75

CN(C)CCCO
viscosity [mPa·s]
Settings | 293.15 K | 303.15 K | 308.15 K | 313.15 K | 318.15 K | 323.15 K
100 kPa | 7.42 | 5.228 | – | 4.007 | – | 3.082
101 kPa | – | 4.933 | 4.22 | 3.632 | 3.155 | 2.765

CC(N)=O + O
[1], 101 kPa
Settings | viscosity [mPa·s]
293.15 K, x1 = 0.0438 | 1.015
293.15 K, x1 = 0.0791 | 1.178
293.15 K, x1 = 0.1282 | 1.416
295.65 K, x1 = 0.02282 | 1.222
295.65 K, x1 = 0.03616 | 1.155
295.65 K, x1 = 0.03629 | 1.149
295.65 K, x1 = 0.0429 | 1.262
295.65 K, x1 = 0.07191 | 1.716
295.65 K, x1 = 0.07575 | 1.47
298.15 K, x1 = 0.0024 | 0.89
298.15 K, x1 = 0.0185 | 0.991
298.15 K, x1 = 0.06152 | 1.232
298.15 K, x1 = 0.09656 | 1.458
298.15 K, x1 = 0.1531 | 1.875
298.15 K, x1 = 0.4073 | 4.442
303 K, x1 = 0.0363 | 1.149
303 K, x1 = 0.0438 | 1.015
303 K, x1 = 0.0791 | 1.178
303 K, x1 = 0.0928 | 1.416

CN(C)CCCO + O
viscosity [mPa·s], [1], 101 kPa
Settings | 303.15 K | 308.15 K | 313.15 K | 318.15 K | 323.15 K
x1 = 0.0478 | 2.218 | 1.896 | 1.635 | 1.432 | 1.262
x1 = 0.0968 | 4.633 | 3.796 | 3.147 | 2.654 | 2.264
x1 = 0.1512 | 7.882 | 6.285 | 5.078 | 4.181 | 3.481
x1 = 0.2009 | – | 8.49 | 6.753 | 5.485 | 4.497
x1 = 0.2997 | 14.97 | 11.59 | 9.103 | 7.288 | 5.903
x1 = 0.3537 | – | 12.35 | 9.663 | 7.732 | 6.247
x1 = 0.4037 | 16.02 | 12.42 | 9.761 | 7.792 | 6.34
x1 = 0.4574 | 15.39 | 12 | 9.458 | 7.631 | 6.19
x1 = 0.499 | 14.63 | 11.46 | 9.077 | 7.329 | 5.974
x1 = 0.6012 | 12.08 | 9.654 | 7.784 | 6.38 | 5.271
x1 = 0.7274 | 9.064 | 7.42 | 6.133 | 5.114 | 4.304
x1 = 0.8081 | 7.504 | 6.239 | 5.224 | 4.417 | 3.765
x1 = 0.9112 | 5.925 | 5.02 | 4.261 | 3.658 | 3.168

C[NH+](C)CCO.O=C([O-])CC(=O)O + O
[1], 101 kPa, x2 = 0.88
Settings | viscosity [mPa·s]
298 K | 9.67
313 K | 6.09

NC(CO)C(=O)[O-].[K+] (stereo not drawn) + O
viscosity [mPa·s], [1], 100 kPa
Settings | x1 = 0.009 | x1 = 0.019 | x1 = 0.029 | x1 = 0.039 | x1 = 0.049 | x1 = 0.06
303.15 K | 0.9271 | 1.088 | 1.308 | 1.575 | 1.929 | 2.448
308.15 K | 0.8325 | 0.9764 | 1.175 | 1.412 | 1.719 | 2.172
313.15 K | 0.7628 | 0.8877 | 1.067 | 1.279 | 1.55 | 1.949
318.15 K | 0.696 | 0.8049 | 0.9686 | 1.159 | 1.398 | 1.752
323.15 K | 0.6347 | 0.74 | 0.8896 | 1.061 | 1.275 | 1.59

NCCNCCO.O=S(=O)([N-]S(=O)(=O)C(F)(F)F)C(F)(F)F.[Li+] + O
[1], 323.15 K, 101 kPa
Settings | viscosity [mPa·s]
x1 = 0.0304 | 1.63
x1 = 0.06 | 3.61
x1 = 0.0997 | 7.57
x1 = 0.2003 | 27.72
x1 = 0.3009 | 65.11
x1 = 0.3955 | 114.4
x1 = 0.4975 | 184.4
x1 = 0.599 | 272.2
x1 = 0.7014 | 372.3
x1 = 0.8015 | 486.8
x1 = 0.8978 | 605.3

O=C([O-])CC(O)(CC(=O)[O-])C(=O)[O-].[Li+].[Li+].[Li+] + O
viscosity [mPa·s], [1], 101 kPa
Settings | 298.15 K | 308.15 K | 318.15 K
x1 = 0.004 | 1.118 | 0.9013 | 0.7487
x1 = 0.007 | 1.39 | 1.112 | 0.9146
x1 = 0.01 | 1.784 | 1.415 | 1.155

O=C[C@H](O)[C@@H](O)[C@@H](O)CO + O
viscosity, [1], 101 kPa
Settings | 293.15 K | 298.15 K | 303.15 K | 308.15 K | 313.15 K | 318.15 K
x1 = 0.0031 | 1.059 mPa·s | – | 0.8425 mPa·s | 0.7555 mPa·s | 0.6857 mPa·s | 0.6277 mPa·s
x1 = 0.006 | 1.122 mPa·s and 1.122 mPa·s (2×) | 0.9982 mPa·s and 0.9982 mPa·s (2×) | 0.8927 mPa·s and 0.8927 mPa·s (2×) | 0.7947 mPa·s and 0.7947 mPa·s and 0.7947 mPa·s | 0.7187 mPa·s and 0.7187 mPa·s (2×) | 0.6585 mPa·s and 0.6585 mPa·s and 0.6585 mPa·s
x1 = 0.0063 | 1.122 mPa·s | 0.9982 mPa·s | 0.8927 mPa·s | 0.7947 mPa·s | 0.7187 mPa·s | 0.6585 mPa·s
x1 = 0.013 | 1.232 mPa·s and 1.232 mPa·s (2×) | – | 0.9886 mPa·s and 0.9886 mPa·s (2×) | 0.8863 mPa·s and 0.8863 mPa·s (2×) | 0.7996 mPa·s and 0.7996 mPa·s (2×) | 0.7229 mPa·s and 0.7229 mPa·s and 0.7229 mPa·s

O=S(=O)(O)CC(O)CN1CCOCC1 (stereo not drawn) + O
viscosity [mPa·s], [1], 101.3 kPa
Settings | x1 = 0.00371 | x1 = 0.007201 | x1 = 0.009661 | x1 = 0.01079 | x1 = 0.01403 | x1 = 0.01784
298.15 K | 0.942 | 1.033 | 1.078 | 1.117 | 1.197 | 1.303
308.15 K | 0.761 | 0.833 | 0.871 | 0.901 | 0.966 | 1.051
318.15 K | 0.631 | 0.691 | 0.721 | 0.746 | 0.798 | 0.866

CC(N)=O + O=C1CCCCCN1
[1], 101 kPa, x2 = 0.5
Settings | viscosity [mPa·s]
303.1 K | 66.67
313.1 K | 32.87
323.1 K | 22.69

CC(=O)N(C)C + OCCO
[1], 308.15 K, 101 kPa
Settings | viscosity [mPa·s]
x2 = 0.1632 | 1.166
x2 = 0.2752 | 1.388
x2 = 0.4068 | 1.611
x2 = 0.5162 | 2.416
x2 = 0.6269 | 3.622
x2 = 0.7125 | 4.662
x2 = 0.7974 | 5.882
x2 = 0.8652 | 7.289
x2 = 0.9339 | 8.916

O=[N+]([O-])c1ccccc1O + c1ccc2ncccc2c1
viscosity [mPa·s], [1], 101 kPa
Settings | 303.15 K | 313.15 K
x1 = 0.1011 | 3.361 | 2.66
x1 = 0.2021 | 3.772 | 2.928
x1 = 0.2913 | 4.125 | 3.16
x1 = 0.3982 | 4.495 | 3.375
x1 = 0.4731 | 4.68 | 3.465
x1 = 0.5638 | 4.72 | 3.47
x1 = 0.6538 | 4.595 | 3.41
x1 = 0.7624 | 4.355 | 3.25
x1 = 0.8131 | 4.22 | 3.151
x1 = 0.8588 | 4.09 | 3.059
x1 = 0.9056 | 3.95 | 2.955
x1 = 0.9521 | – | 2.855

BrC(Br)(Br)Br + c1ccccc1
[1], 298.15 K, 101 kPa
Settings | viscosity [mPa·s]
x1 = 0.1 | 0.8303
x1 = 0.2 | 1.122
x1 = 0.3 | 1.464
x1 = 0.4 | 1.839
x1 = 0.5 | 2.235
x1 = 0.6 | 2.636
x1 = 0.7 | 3.026
x1 = 0.8 | 3.391
x1 = 0.9 | 3.716

CCCCCCCCCO + c1ccccc1
viscosity [mPa·s], [1], 100 kPa
Settings | x2 = 0.0841 | x2 = 0.1721 | x2 = 0.2502 | x2 = 0.3634 | x2 = 0.4529 | x2 = 0.5631 | x2 = 0.6508 | x2 = 0.7569 | x2 = 0.8448 | x2 = 0.9503
293.15 K | 9.518 | 7.891 | 6.648 | 5.055 | 3.95 | 2.851 | 2.158 | 1.469 | 1.089 | 0.766
303.15 K | 6.477 | 5.231 | 4.302 | 3.268 | 2.618 | 1.931 | 1.474 | 1.067 | 0.824 | 0.628
313.15 K | 4.537 | 3.665 | 3.011 | 2.228 | 1.762 | 1.327 | 1.045 | 0.807 | 0.675 | 0.542
323.15 K | 3.323 | 2.677 | 2.203 | 1.656 | 1.318 | 1.005 | 0.817 | 0.662 | 0.56 | 0.474

Cc1c[nH]cn1 + c1ccccc1
viscosity [mPa·s], [1], 101 kPa
Settings | 303.15 K | 323.15 K
x1 = 0.003559 | 0.568 | –
x1 = 0.007082 | 0.584 | –
x1 = 0.02102 | 0.631 | 0.479
x1 = 0.02167 | 0.636 | 0.48
x1 = 0.04045 | 0.729 | 0.533
x1 = 0.04194 | 0.748 | 0.543
x1 = 0.04196 | 0.749 | –
x1 = 0.05112 | 0.796 | 0.574
x1 = 0.08708 | 1.004 | –
x1 = 0.1079 | 1.123 | –
x1 = 0.1551 | 1.496 | –
x1 = 0.2018 | 1.869 | –
x1 = 0.2491 | 2.344 | –

CC(N)=O + c1ccncc1
[1], 298.15 K, 101 kPa
Settings | viscosity [mPa·s]
x1 = 0.0512 | 0.987
x1 = 0.0742 | 1.005
x1 = 0.111 | 1.088
x1 = 0.2065 | 1.381

O=C(Nc1ccccc1)Nc1ccccc1 + c1ccncc1
[1], 298.15 K, 101 kPa
Settings | viscosity [mPa·s]
x1 = 0.022 | 1.045
x1 = 0.0281 | 1.079

O=[N+]([O-])c1ccccc1O + c1ccncc1
viscosity [mPa·s], [1], 101 kPa
Settings | x1 = 0.06767 | x1 = 0.1295 | x1 = 0.178 | x1 = 0.2717 | x1 = 0.3836 | x1 = 0.4628 | x1 = 0.5508 | x1 = 0.6529 | x1 = 0.7913 | x1 = 0.8557
303.15 K | 0.943 | 1.081 | 1.211 | 1.5 | 1.881 | 2.15 | 2.45 | 2.755 | 3.145 | 3.331
313.15 K | 0.815 | 0.93 | 1.03 | 1.245 | 1.51 | 1.711 | 1.912 | 2.145 | 2.411 | 2.525
